According to patent US20150148256A1, “BIOLUMINESCENCE IMAGING-BASED SCREENING ASSAY AND INHIBITORS OF ABCG2” (THE JOHNS HOPKINS UNIVERSITY, priority 2008, published 2015):
Counter-ions that a name gives are not always drawn. Residues, ends and D or L forms follow the SMILES beside them.

Each compound was assayed against T1, ABCG2 (Homo sapiens, UniProt Q9UNQ0) (assay: Bioluminescence imaging (BLI) assay in HEK293/ABCG2/fLuc cells). Settings: not given.
T1 sequence (Q9UNQ0 1-655): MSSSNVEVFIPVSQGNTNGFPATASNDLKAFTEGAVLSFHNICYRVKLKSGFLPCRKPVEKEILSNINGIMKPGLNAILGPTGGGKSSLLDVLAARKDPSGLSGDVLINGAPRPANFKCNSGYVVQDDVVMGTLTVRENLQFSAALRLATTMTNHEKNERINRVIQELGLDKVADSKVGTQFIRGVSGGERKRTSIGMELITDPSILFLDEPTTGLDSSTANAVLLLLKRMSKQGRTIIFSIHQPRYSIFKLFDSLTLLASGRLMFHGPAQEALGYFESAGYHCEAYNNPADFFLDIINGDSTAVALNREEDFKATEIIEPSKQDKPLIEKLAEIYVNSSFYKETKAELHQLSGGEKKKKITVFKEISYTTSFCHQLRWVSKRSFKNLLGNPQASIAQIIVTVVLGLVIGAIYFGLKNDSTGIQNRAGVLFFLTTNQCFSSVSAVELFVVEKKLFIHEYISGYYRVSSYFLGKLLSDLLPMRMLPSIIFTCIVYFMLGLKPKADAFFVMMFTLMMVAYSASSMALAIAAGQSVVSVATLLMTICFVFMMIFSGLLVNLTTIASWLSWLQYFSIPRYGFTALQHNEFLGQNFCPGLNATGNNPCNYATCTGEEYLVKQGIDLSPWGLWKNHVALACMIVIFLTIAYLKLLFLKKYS
Method: HEK293/ABCG2/fLuc cells were plated into 96-well plates at a density of 4×10^4 cells/100 μL per well and were allowed to attach overnight. The following day, 10 μL of each compound or the control solvent was transferred from a compound library in a 96-well, high-throughput format into the wells using a multichannel pipette. […] Images were taken every 5 minutes for ˜1 h. Light output from each well was quantified at the 40 min time point after initiation of imaging, and the signal-to-background (S/B) ratio of the light output from each compound divided by that from the control well was calculated. This S/B ratio serves as an indicator of the potency of ABCG2 inhibition, the mechanism by which BLI signal is enhanced.
Images were taken every 5 min for ˜1 h, and light output from each well at the 40 min time point was chosen for quantification. The SB ratio of the light output from each compound divided by that from the control well was calculated. This ratio was used as an indicator of the potency of ABCG2 inhibition, the mechanism by which BLI signal is enhanced.
The BLI signal-enhancing effect of selected ABCG2 inhibitors was evaluated within the range of 0.001 μM-100 μM, with HEK293/ABCG2/fLuc cells and 50 μg/mL D-luciferin. The data obtained at 40 min after imaging commencement were chosen arbitrarily to be plotted (FIG. 3).

| Compound | BLI signal enhancement at lower concentrations | Fold (BLI enhancement, S/B ratio over control) | IC50 |
| --- | --- | --- | --- |
| CNc1ccc2oc(C[C@H]3O[C@@]4(CC[C@H]3C)O[C@H]([C@H](C)C(=O)c3ccc[nH]3)[C@H](C)C[C@H]4C)nc2c1C(=O)O [calcimycin] | enhance BLI signal minimally | – | – |
| CS(=O)(=O)O.O=C(O[C@H]1C[C@H]2CC3C[C@@H](C1)N2CC3=O)c1c[nH]c2ccccc12 [dolasetron mesylate] | – | 3.0 fold | – |
| COc1cc2nc(N3CCN(C(=O)C4COc5ccccc5O4)CC3)nc(N)c2cc1OC (centres unmarked) [doxazosin mesylate] | – | – | 8 µM |

Same assay, conditions: BLI screen, approximately 17 μM, 40 min

| Compound | BLI signal enhancement |
| --- | --- |
| COc1ccc(-c2cc(=O)c3c(O)cc(O)cc3o2)cc1 [acacetin] | 1.8 fold |

Same assay, conditions: Table 2; HEK293/ABCG2/fLuc cells, compound approximately 17 μM, ~50 μg/mL D-luciferin, 40 min time point

| Compound | Fold (BLI enhancement, S/B ratio over control) |
| --- | --- |
| C[C@]12CC[C@@H]3c4ccc(O)cc4CC[C@H]3[C@@H]1CC[C@@H]2O [13-estradiol] | 4.2 fold |
| CN1[C@@H]2CC[C@H]1C[C@@H](OC(c1ccccc1)c1ccccc1)C2.CS(=O)(=O)O [benztropin Methane-] | 2.0 fold |
| COc1ccc2cc3[n+](cc2c1OC)CCc1cc2c(cc1-3)OCO2.O=S(=O)([O-])O [berberine bisulfate] | 2.2 fold |
| CC(=O)[C@@]1(O)CC[C@H]2[C@@H]3C=C(Cl)C4=CC(=O)[C@@H]5C[C@@H]5[C@]4(C)[C@H]3CC[C@@]21C [cyproterone] | 2.0 fold |
| Cc1c2ccncc2c(C)c2c1[nH]c1ccccc12 [ellipticine] | 2.5 fold |

Same assay, conditions: Table 5; approximately 17 μM, 40 min time point

| Compound | fold (BLI enhancement), additional previously known ABCG2 inhibitors |
| --- | --- |
| COc1ccc(-c2cc(=O)c3c(O)cc(O)cc3o2)cc1 [acacetin] | 1.8 fold |

Same assay, conditions: human

| Compound | Fold (BLI enhancement, S/B ratio over control) | Fold (BLI enhancement), previously unknown compounds |
| --- | --- | --- |
| CC[C@@]1(O)C[C@H](O[C@H]2C[C@H](N(C)C)[C@H](O[C@H]3C[C@H](O)[C@H](O[C@H]4CCC(=O)[C@H](C)O4)[C@H](C)O3)[C@H](C)O2)c2c(cc3c(c2O)C(=O)c2c(O)cccc2C3=O)[C@H]1C(=O)OC [aclarubicin] | 3.5 fold | – |
| CC[C@@]1(O)C[C@H](O[C@H]2C[C@H](N(C)C)[C@H](O)[C@H](C)O2)c2c(cc3c(c2O)C(=O)c2c(O)cccc2C3=O)[C@H]1C(=O)OC [aklavine hydrochloride] | 2.5 fold | – |
| CC(C)C[C@H]1C(=O)N2CCC[C@H]2[C@]2(O)O[C@](NC(=O)[C@@H]3C=C4c5cccc6[nH]c(Br)c(c56)C[C@H]4N(C)C3)(C(C)C)C(=O)N12 [bromocriptine mesylate] | 2.1 fold | – |
| CN1C[C@H](C(=O)N[C@]2(C)O[C@@]3(O)[C@@H]4CCCN4C(=O)[C@H](Cc4ccccc4)N3C2=O)C[C@@H]2c3cccc4[nH]cc(c34)C[C@H]21 [dihydroergotamine mesylate] | 9.6 fold | 9.6 fold |

Same assay, conditions: human, 40 min, 17 μM

| Compound | Fold (BLI enhancement, S/B ratio over control) | fold (BLI enhancement), additional previously known ABCG2 inhibitors | Fold (BLI enhancement), previously unknown compounds | Fold (BLI enhancement), known compounds | BLI signal enhancement |
| --- | --- | --- | --- | --- | --- |
| CCCn1c(=O)c2[nH]c(C3CCCC3)nc2n(CCC)c1=O [1,3-dipropyl-8-cyclopentylxanthine] | 4.3 fold | – | – | – | – |
| O=c1cc(-c2ccccc2)oc2cc(O)c(O)cc12 [6,7-dihydroxyflavone] | 2.7 fold | 2.7 fold | – | – | – |
| Cn1c(=O)c2[nH]c(C3CCCC3)nc2n(C)c1=O [8-cyclopentyltheophylline] | 2.9 fold | – | – | – | – |
| CCCCC(CC)CNC(=N)NC(=N)NCCCCCCNC(=N)NC(=N)NCC(CC)CCCC (centres unmarked) [alexidine hydrochloride] | 3.1 fold | – | – | – | – |
| Nc1c2ccccc2nc2ccccc12 [aminacrine] | 2.9 fold | – | – | – | – |
| CCN(CC)Cc1cc(Nc2ccnc3cc(Cl)ccc23)ccc1O [amodiaquin] | 3.8 fold | – | – | – | – |
| COc1ccc(CCN2CCC(Nc3nc4ccccc4n3Cc3ccc(F)cc3)CC2)cc1 [astemizole] | 2.8 fold | – | – | – | – |
| O=C1C(O)=C([C@H]2CC[C@H](c3ccc(Cl)cc3)CC2)C(=O)c2ccccc21 [atovaquone] | 3.5 fold | – | – | – | – |
| CN1CCCC(n2nc(Cc3ccc(Cl)cc3)c3ccccc3c2=O)CC1 (centres unmarked) [azelastine hydrochloride] | 2.4 fold | – | – | – | – |
| CCC(=O)OCC(=O)[C@@]1(OC(=O)CC)[C@@H](C)C[C@H]2[C@@H]3CCC4=CC(=O)C=C[C@]4(C)[C@@]3(Cl)[C@@H](O)C[C@@]21C [beclomethasone dipropionate] | 3.2 fold | – | – | – | – |
| CCCCC(=O)O[C@]1(C(=O)CO)[C@@H](C)C[C@H]2[C@@H]3CCC4=CC(=O)C=C[C@]4(C)[C@@]3(F)[C@@H](O)C[C@@]21C [betamethasone valerate] | 2.6 fold | – | – | – | – |
| Brc1c(NC2=NCCN2)ccc2nccnc12 [brimonidine] | 3.4 fold | – | – | – | – |
| C=C1CC[C@H](O)C/C1=C/C=C1\CCC[C@]2(C)[C@@H]([C@H](C)CCCC(C)(C)O)CC[C@@H]12 [calcifediol] | 3.2 fold | – | – | – | – |
| COc1ccccc1OCCNCC(O)COc1cccc2[nH]c3ccccc3c12 (centres unmarked) [carvedilol] | 10.0 fold | – | – | – | – |
| CC(C)(O/N=C(\C(=O)N[C@@H]1C(=O)N2C(C(=O)[O-])=C(C[n+]3ccccc3)CS[C@H]12)c1csc(N)n1)C(=O)O [ceftazidime] | 2.5 fold | – | – | – | – |
| Cc1ccc(-c2cc(C(F)(F)F)nn2-c2ccc(S(N)(=O)=O)cc2)cc1 [celecoxib] | 2.2 fold | – | – | – | – |
| COc1ccc2cc1Oc1ccc(cc1)C[C@H]1c3c(cc4c(c3Oc3cc5c(cc3OC)CCN(C)[C@@H]5C2)OCO4)CCN1C [cepharanthine] | 2.1 fold | – | – | – | – |

| Compound | Fold (BLI enhancement, S/B ratio over control) | fold (BLI enhancement), additional previously known ABCG2 inhibitors | Fold (BLI enhancement), previously unknown compounds | Fold (BLI enhancement), known compounds | BLI signal enhancement |
| --- | --- | --- | --- | --- | --- |
| Cc1cc(O)cc(C)c1Cl [chloroxylenol] | 2.4 fold | – | – | – | – |
| O=c1cc(-c2ccccc2)oc2cc(O)cc(O)c12 [chrysin] | 2.3 fold | 2.3 fold | – | – | – |
| O=C1CCc2cc(OCCCCc3nnnn3C3CCCCC3)ccc2N1 [cilostazol] | 3.8 fold | – | – | – | – |
| C=CC1=C(C(=O)O)N2C(=O)[C@@H](NC(=O)/C(=N\OCC(=O)O)c3csc(N)n3)[C@H]2SC1 [citropen] | 4.3 fold | – | – | – | – |
| COc1cc(N)c(Cl)cc1C(=O)NC1CCN(Cc2ccccc2)CC1 [clebopride] | 6.7 fold | – | 6.7 fold | – | – |
| CCC(=O)O[C@]1(C(=O)CCl)[C@@H](C)C[C@H]2[C@@H]3CCC4=CC(=O)C=C[C@]4(C)[C@@]3(F)[C@@H](O)C[C@@]21C [clobetasol propionate] | 3.3 fold | – | – | – | – |
| COc1cc(/C=C/C(=O)CC(=O)/C=C/c2ccc(O)c(OC)c2)ccc1O [curcumin] | 6.3 fold | – | – | 6.3 fold | – |
| NC1(C(=O)NCC(=O)O)CCCC1 [cycloleucylglycine] (HELM PEPTIDE1{[NC1(C(=O)[*:2])CCCC1].G}$$$$V2.0) | 2.5 fold | – | – | – | – |
| CC(=O)OCC(=O)[C@@]1(O)[C@H](C)C[C@H]2[C@@H]3CCC4=CC(=O)C=C[C@]4(C)[C@@]3(F)[C@@H](O)C[C@@]21C [dexamethasone acetate] | 2.2 fold | – | – | – | – |
| N#CC(c1ccc(Cl)cc1)c1c(Cl)cc(-n2ncc(=O)[nH]c2=O)cc1Cl (centres unmarked) [diclazuril] | 2.4 fold | – | – | – | – |
| CCCC(=O)O[C@]1(C(=O)COC(C)=O)CC[C@H]2[C@@H]3C[C@H](F)C4=CC(=O)C=C[C@]4(C)[C@@]3(F)[C@@H](O)C[C@@]21C [difluprednate] | 2.0 fold | – | – | – | – |
| O=C(Nc1ccccc1)OCC(CN1CCCCC1)OC(=O)Nc1ccccc1 (centres unmarked) [diperodon hydrochloride] | 2.6 fold | – | – | – | – |
| OCCN(CCO)c1nc(N2CCCCC2)c2nc(N(CCO)CCO)nc(N3CCCCC3)c2n1 [dipyridamole] | 7.1 fold | 7.1 fold | – | 7.1 fold | – |
| O=c1[nH]c2ccccc2n1CCCN1CCC(n2c(=O)[nH]c3cc(Cl)ccc32)CC1 [domperidone] | 2.5 fold | – | – | – | – |
| COc1cc2nc(N3CCN(C(=O)C4COc5ccccc5O4)CC3)nc(N)c2cc1OC (centres unmarked) [doxazosin mesylate] | – | – | – | – | 16 fold |
| Clc1ccc(COC(Cn2ccnc2)c2ccc(Cl)cc2Cl)cc1 (centres unmarked) [econazole] | 2.5 fold | – | – | – | – |
| Cc1cc(O)c2c(c1)C(=O)c1cc(O)cc(O)c1C2=O [emodin] | 6.4 fold | – | 6.4 fold | – | – |
